Results reported in patent US20130317040A1, “METHODS FOR TREATING SYSTEMIC LUPUS ERYTHEMATOSUS USING HIV PROTEASE INHIBITORS” (The Feinstein Institute of Medical Research, priority 2010, published 2013).

How the values were obtained:
[1] = test system: lupus anti-dsDNA monoclonal antibody, R4A; assay: Competitive ELISA, R4A binding to bound C1q protein; design: species or system mouse; conditions: at the most effective concentration of compound
Experimental: (§1) To test whether these antiviral drugs might inhibit R4A binding, competitive ELISAs, with bound DWEYS peptide, bound dsDNA, or bound C1q protein, were performed. […] Activity in these ELISAs is predictive of binding activity with naturally occurring anti-dsDNA antibodies in lupus patients.
(§2) ELISAs. […] Antigens were absorbed to microtiter plate wells (either D-DWEYS (20 μg/ml) in PBS, calf thymus DNA (100 μg/ml) in NaHCO3 (0.1M, pH 8.6) or full length complement component C1q (10-20 μg/ml) in PBS) overnight at 37° C. […] The competitive ELISA was performed as described, using R4A monoclonal antibodies (2-20 μg/ml). […] The plates were washed and alkaline phosphatase-conjugated goat anti-mouse IgG antibody was added for 1 h at 37° C.

[2] = test system: lupus anti-dsDNA monoclonal antibody, R4A; assay: Competitive ELISA, R4A binding to bound DWEYS peptide; design: species or system mouse; conditions: for inhibition of R4A binding, DWEYS: competitive ELISA, bound D-DWEYS, at the most effective concentration of compound; for inhibition of R4A binding to D-DWEYS-5 peptide on ELISAs: R4A 2 μg/ml, 1 μM, 10 μM and 100 μM, highest concentrations showed the greatest inhibition
Experimental: as §1, §2

[3] = test system: lupus anti-dsDNA monoclonal antibody, R4A; assay: Competitive ELISA, R4A binding to bound dsDNA (calf thymus DNA); design: species or system mouse; conditions: for inhibition of R4A binding, DNA: competitive ELISA, bound calf thymus DNA, at the most effective concentration of compound
Experimental: as §1, §2

[4] = test system: mouse monoclonal anti-dsDNA antibody, R4A; assay: Deposition of R4A to kidney glomeruli ex vivo; type: binding; conditions: detected with fluorescently-labeled secondary antibody
Source text: Nephrotoxicity: nelfinavir was also found to suppress pathologic deposition of mouse monoclonal anti-dsDNA antibody, […], to kidney glomeruli ex vivo. […] For methodology see Bloom, O. et al., (2011), PNAS 108:10255-10259 and Zhang, J. et al., (2009), J. Autoimmun. 33:270-274.

[5] = test system: R4A-induced apoptosis in the central nervous system; assay: R4A-induced neurotoxicity in vivo, hippocampal injection, TUNEL staining; conditions: R4A pre-incubated with inhibitor 15 min at 37° C., injected into hippocampus; brain slices after 48 hours
Experimental: Neurotoxicity: protection from R4A-induced apoptosis in the central nervous system was assessed by TUNEL staining. […] R4A was pre-incubated with vehicle or HIV protease inhibitors for 15 min. at 37° C. The preparation was then stereotaxically injected into the hippocampus of test animals. After 48 hours, brain slices at the injection site were subjected to TUNEL staining. […] For methodology see Bloom, O. et al., (2011), supra, and Zhang, J. et al., (2009), supra.

[6] = test system: cytochrome P-450 enzymes; conditions: cited from earlier work
[7] = in vivo; cited from earlier work
[8] = test system: lupus patient sera components binding to DNA (anti-dsDNA antibodies); assay: ELISA, lupus patient sera binding to DNA; design: species or system human; conditions: compound at 1, 10 and 100 micromolar; sera from lupus patients with elevated anti-dsDNA titers
Source text: In early tests, inhibition of lupus patient sera components binding to DNA by nelfinavir was observed (data not shown). Sera, collected from lupus patients with moderately active disease and elevated titers of anti-dsDNA antibodies, was used for an ELISA assay for binding to DNA. The addition of nelfinavir in micromolar concentrations of 1, 10 and 100 decreased DNA binding by an average of 43%.

[9] = R4A 5 μg/ml, compound at 25 μM and 50 μM

CC(C)(C)NCC1CC2CCCCC2CN1CC(O)C(Cc1ccccc1)NCC(CCN)NCC1Nc2ccccc2CC1O (stereo not shown) [12W, 2-((4-amino-1-(4-(3-((tert-butylamino)methyl)octahydroisoquinolin-2(1H)-yl)-3-hydroxy-1-phenylbutan-2-ylamino)butan-2-ylamino)methyl)-1,2,3,4-tetrahydroquinolin-3-ol]
inhibition of R4A binding, C1q assay [1]: 18% | inhibition of R4A binding, DWEYS [2]: 31% | inhibition of R4A binding, DNA [3]: 32%

COC(=O)N[C@H](C(=O)N[C@@H](Cc1ccccc1)[C@@H](O)CN(Cc1ccc(-c2ccccn2)cc1)NC(=O)[C@@H](NC(=O)OC)C(C)(C)C)C(C)(C)C [Atazanavir, atazanavir]
inhibition of R4A binding, C1q assay [1]: 64% | R4A binding (deposition) to kidney glomeruli ex vivo [4]: only nelfinavir decreased | inhibition of R4A binding to D-DWEYS-5 peptide on ELISAs [2]: improved inhibition | inhibition of R4A binding, DWEYS [2]: 46% | inhibition of R4A binding, DNA [3]: 38%

CC(C)CN(C[C@@H](O)[C@H](Cc1ccccc1)NC(=O)O[C@H]1CO[C@H]2OCC[C@H]21)S(=O)(=O)c1ccc(N)cc1 [Darunavir, darunavir]
inhibition of R4A binding, C1q assay [1]: 0% | inhibition of R4A binding, DWEYS [2]: 16% | inhibition of R4A binding, DNA [3]: 3%

Cc1cccc(C)c1OCC(=O)N[C@@H](Cc1ccccc1)[C@@H](O)C[C@H](Cc1ccccc1)NC(=O)[C@H](C(C)C)N1CCCNC1=O [Lopinavir, lopinavir]
inhibition of R4A binding, C1q assay [1]: 38% | R4A binding (deposition) to kidney glomeruli ex vivo [4]: only nelfinavir decreased | inhibition of R4A binding to D-DWEYS-5 peptide on ELISAs [2]: improved inhibition | inhibition of R4A binding, DWEYS [2]: 56% | inhibition of R4A binding, DNA [3]: 32%

CC(C)c1nc(CN(C)C(=O)N[C@H](C(=O)N[C@@H](Cc2ccccc2)C[C@H](O)[C@H](Cc2ccccc2)NC(=O)OCc2cncs2)C(C)C)cs1 [Ritonavir, ritonavir]
inhibition of R4A binding, C1q assay [1]: 13% | inhibition of R4A binding, DWEYS [2]: 8% | inhibition of R4A binding, DNA [3]: 0%

CC(C)(C)NC(=O)[C@@H]1C[C@@H]2CCCC[C@@H]2CN1C[C@@H](O)[C@H](Cc1ccccc1)NC(=O)[C@H](CC(N)=O)NC(=O)c1ccc2ccccc2n1 [Saquinavir, saquinavir]
inhibition of R4A binding, C1q assay [1]: 54% | R4A binding (deposition) to kidney glomeruli ex vivo [4]: only nelfinavir decreased | inhibition of R4A binding to D-DWEYS-5 peptide on ELISAs [2]: improved inhibition | inhibition of R4A binding, DWEYS [2]: 33% | inhibition of R4A binding, DNA [3]: 31%

Cc1c(O)cccc1C(=O)N[C@@H](CSc1ccccc1)[C@H](O)CN1C[C@H]2CCCC[C@H]2C[C@H]1C(=O)NC(C)(C)C [nelfinavir]
protection from R4A neurotoxicity (TUNEL staining) [5]: block neurotoxicity | metabolizing cytochrome P-450 enzymes [6]: CYP3A4, CYP2C19, CYP2C9, and CYP2D6 | time until steady state of the drug is achieved [7]: 6 days | R4A binding (deposition) to kidney glomeruli ex vivo [4]: decreased the R4A binding | inhibition of R4A binding to DWEYS peptide on ELISAs [2, 9]: Significant inhibition | inhibition of R4A binding to DNA on ELISAs [3, 9]: Significant inhibition | decrease of lupus patient sera DNA binding (average) [8]: 43%
